According to ChEMBL document CHEMBL4665688, “Discovery of AB680: A Potent and Selective Inhibitor of CD73” (J Med Chem, 2020):

Key:
[1] = target: T1, Ectonucleoside triphosphate diphosphohydrolase 8 (Homo sapiens, UniProt Q5MY95); experiment: Inhibition of NTPDase 8 (unknown origin) expressed in CHO cells using ATP as substrate preincubated for 1 hr followed by substrate addition and measured after 50 mins by PiColorLock gold reagent based colorimetric assay; type: cell-based
T1 sequence (Q5MY95 whole entry): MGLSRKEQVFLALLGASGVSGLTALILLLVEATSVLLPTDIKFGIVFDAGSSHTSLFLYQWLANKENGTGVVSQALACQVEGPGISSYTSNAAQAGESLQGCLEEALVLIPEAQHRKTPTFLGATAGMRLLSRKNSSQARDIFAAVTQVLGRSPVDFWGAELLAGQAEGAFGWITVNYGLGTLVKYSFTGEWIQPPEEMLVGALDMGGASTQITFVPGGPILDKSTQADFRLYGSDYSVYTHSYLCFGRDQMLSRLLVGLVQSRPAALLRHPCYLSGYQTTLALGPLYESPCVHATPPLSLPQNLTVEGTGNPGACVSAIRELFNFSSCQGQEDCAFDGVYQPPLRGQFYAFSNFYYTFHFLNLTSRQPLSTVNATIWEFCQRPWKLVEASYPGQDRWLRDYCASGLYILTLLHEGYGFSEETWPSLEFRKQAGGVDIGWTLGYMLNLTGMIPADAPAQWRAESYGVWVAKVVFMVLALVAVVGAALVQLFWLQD

[2] = Clearance in mouse at 0.5 mg/kg, iv; type: ADME, organism-based; settings: in vivo
[3] = Half life in mouse at 0.5 mg/kg, iv; type: ADME, organism-based; settings: in vivo
[4] = Fraction unbound in monkey plasma; type: ADME, cell-free, Macaca mulatta; settings: rhesus monkey
[5] = Clearance in Sprague-Dawley rat at 0.5 mg/kg, iv; type: ADME, organism-based; settings: in vivo
[6] = Fraction unbound in dog plasma; type: ADME, cell-free, Canis lupus familiaris
[7] = Volume of distribution at steady state in mouse at 0.5 mg/kg, iv; type: ADME, organism-based; settings: in vivo, read-out: Vdss
[8] = Volume of distribution at steady state in Sprague-Dawley rat at 0.5 mg/kg, iv; type: ADME, organism-based; settings: in vivo, read-out: Vdss
[9] = Clearance in monkey at 0.5 mg/kg, iv; type: ADME, organism-based, Macaca mulatta; settings: rhesus monkey, in vivo
[10] = target: T2, Ectonucleoside triphosphate diphosphohydrolase 3 (Homo sapiens, UniProt O75355); experiment: Inhibition of NTPDase 3 (unknown origin) expressed in CHO cells using ATP as substrate preincubated for 1 hr followed by substrate addition and measured after 50 mins by PiColorLock gold reagent based colorimetric assay; type: cell-based
T2 sequence (O75355 whole entry): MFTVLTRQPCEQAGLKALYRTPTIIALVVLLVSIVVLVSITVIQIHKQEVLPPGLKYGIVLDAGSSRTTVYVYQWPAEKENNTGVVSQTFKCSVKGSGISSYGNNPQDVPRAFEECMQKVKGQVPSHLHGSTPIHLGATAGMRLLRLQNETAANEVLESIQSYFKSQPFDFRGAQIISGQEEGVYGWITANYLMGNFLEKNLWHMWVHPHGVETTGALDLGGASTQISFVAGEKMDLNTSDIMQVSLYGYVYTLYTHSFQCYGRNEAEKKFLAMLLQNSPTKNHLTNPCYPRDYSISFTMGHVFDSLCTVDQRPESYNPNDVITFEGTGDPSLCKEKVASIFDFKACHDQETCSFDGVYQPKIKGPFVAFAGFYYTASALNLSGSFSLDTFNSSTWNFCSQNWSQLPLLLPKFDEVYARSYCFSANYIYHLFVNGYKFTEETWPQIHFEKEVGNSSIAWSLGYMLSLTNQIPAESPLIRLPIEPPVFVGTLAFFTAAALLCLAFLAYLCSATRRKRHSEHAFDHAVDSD

[11] = Half life in dog at 0.5 mg/kg, iv; type: ADME, organism-based, Canis lupus familiaris; settings: in vivo
[12] = target: T3, Ectonucleoside triphosphate diphosphohydrolase 1 (Homo sapiens, UniProt P49961); experiment: Inhibition of CD39 (unknown origin)
T3 sequence (P49961 whole entry): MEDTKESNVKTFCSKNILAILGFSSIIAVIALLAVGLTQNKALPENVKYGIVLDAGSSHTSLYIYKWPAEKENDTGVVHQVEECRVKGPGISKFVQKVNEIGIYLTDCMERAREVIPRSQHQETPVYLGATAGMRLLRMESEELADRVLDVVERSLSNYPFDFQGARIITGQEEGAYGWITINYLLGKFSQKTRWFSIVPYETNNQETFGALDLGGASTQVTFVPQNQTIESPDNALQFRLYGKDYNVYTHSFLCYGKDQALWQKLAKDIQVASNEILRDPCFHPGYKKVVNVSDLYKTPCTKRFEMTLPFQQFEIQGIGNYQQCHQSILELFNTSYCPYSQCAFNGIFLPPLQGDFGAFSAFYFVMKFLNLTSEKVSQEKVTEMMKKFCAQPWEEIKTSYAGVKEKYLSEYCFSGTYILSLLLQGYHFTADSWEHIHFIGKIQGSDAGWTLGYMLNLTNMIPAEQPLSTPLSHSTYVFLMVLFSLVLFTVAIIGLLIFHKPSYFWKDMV

[13] = Half life in Sprague-Dawley rat at 0.5 mg/kg, iv; type: ADME, organism-based; settings: in vivo
[14] = Volume of distribution at steady state in monkey at 0.5 mg/kg, iv; type: ADME, organism-based, Macaca mulatta; settings: rhesus monkey, in vivo, read-out: Vdss
[15] = Volume of distribution at steady state in dog at 0.5 mg/kg, iv; type: ADME, organism-based, Canis lupus familiaris; settings: in vivo, read-out: Vdss
[16] = Half life in monkey at 0.5 mg/kg, iv; type: ADME, organism-based, Macaca mulatta; settings: rhesus monkey, in vivo
[17] = Fraction unbound in Sprague-Dawley rat plasma; type: ADME, cell-free
[18] = target: T4, Ectonucleoside triphosphate diphosphohydrolase 2 (Homo sapiens, UniProt Q9Y5L3); experiment: Inhibition of NTPDase 2 (unknown origin) expressed in CHO cells using ATP as substrate preincubated for 1 hr followed by substrate addition and measured after 50 mins by PiColorLock gold reagent based colorimetric assay; type: cell-based
T4 sequence (Q9Y5L3 whole entry): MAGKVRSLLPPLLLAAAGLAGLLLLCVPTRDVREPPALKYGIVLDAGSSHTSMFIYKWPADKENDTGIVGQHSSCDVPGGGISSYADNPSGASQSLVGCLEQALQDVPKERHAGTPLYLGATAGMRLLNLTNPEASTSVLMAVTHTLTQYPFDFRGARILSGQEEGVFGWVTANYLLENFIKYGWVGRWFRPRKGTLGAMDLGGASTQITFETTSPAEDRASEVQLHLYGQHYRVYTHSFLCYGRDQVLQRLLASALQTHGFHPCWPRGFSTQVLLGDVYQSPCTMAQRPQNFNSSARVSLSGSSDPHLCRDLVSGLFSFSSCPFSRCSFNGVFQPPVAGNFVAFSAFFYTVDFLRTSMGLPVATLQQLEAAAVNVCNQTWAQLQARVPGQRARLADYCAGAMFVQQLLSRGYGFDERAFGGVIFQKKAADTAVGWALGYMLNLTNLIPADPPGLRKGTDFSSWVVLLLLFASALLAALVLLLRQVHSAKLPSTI

[19] = Fraction unbound in mouse plasma; type: ADME, cell-free; set-up: dose or concentration left out as unconfirmed

| IC50 [1] [µM] | clearance [2] [mL/min/kg] | half-life [3] [h] | fraction unbound [4] | clearance [5] [mL/min/kg] | fraction unbound [6] | Vd [7] [L/kg] | Vd [8] [L/kg] | clearance [9] [mL/min/kg] | IC50 [10] [µM] | half-life [11] [h] | IC50 [12] [µM] | half-life [13] [h] | Vd [14] [L/kg] | Vd [15] [L/kg] | half-life [16] [h] | fraction unbound [17] | IC50 [18] [µM] | fraction unbound [19] | SMILES |
| --- | --- | --- | --- | --- | --- | --- | --- | --- | --- | --- | --- | --- | --- | --- | --- | --- | --- | --- | --- |
| > 10 | 0.417 | 3.5 | 0.0059 | 0.333 | 0.083 | 0.12 | 0.12 | 0.0417 | > 10 | 22 | > 10 | 5.3 | 0.099 | 1.3 | 27 | 0.0017 | > 10 | 0.0089 | C[C@H](Nc1cc(Cl)nc2c1cnn2[C@@H]1O[C@H](COP(=O)(O)CP(=O)(O)O)[C@@H](O)[C@H]1O)c1ccccc1F |
| > 10 | 1.27 | 2 | 0.002 | 1.07 | 0.187 | 0.18 | 0.12 | 0.04 | > 10 | 13 | > 10 | 1.7 | 0.096 | 0.84 | 28 | 0.0095 | > 10 | 0.029 | C[C@H](Nc1nc(Cl)nc2c1cnn2[C@@H]1O[C@H](COP(=O)(O)CP(=O)(O)O)[C@@H](O)[C@H]1O)c1ccccc1 |
| > 10 | 0.25 | 6.5 | 0.0034 | 0.15 | 0.102 | 0.11 | 0.12 | 0.0283 | > 10 | 15 | > 10 | 9.6 | 0.078 | 0.63 | 34 | 0.0016 | > 10 | 0.0065 | C[C@H](Nc1cc(Cl)nc2c1cnn2[C@@H]1O[C@H](COP(=O)(O)CP(=O)(O)O)[C@@H](O)[C@H]1O)c1ccc(F)cc1 |
